Results from article PMC7614687, “Modulation of the substrate specificity of the kinase PDK1 by distinct conformations of the full-length protein*” (Science signaling, 2023).

Legend:
GST-PDK1_360-556 = target: T1, GST-PDK1_360-556 (Homo sapiens, UniProt O15530); assay: AlphaScreen biotin-PIP3 / GST-PDK1_360-556 (linker-PH domain) displacement; assay type: binding; conditions: relative to 5 nM on GST-PDK1_1-556
T1 construct: GST-PDK1_360-556 (GST-PDK1-Linker-PH) was cloned into the BamHI-KpnI sites in pEBG2T plasmid; made in house; host or cells: HEK293 cells (transient transfection of pEBG2T)
T1 sequence (O15530 360-556): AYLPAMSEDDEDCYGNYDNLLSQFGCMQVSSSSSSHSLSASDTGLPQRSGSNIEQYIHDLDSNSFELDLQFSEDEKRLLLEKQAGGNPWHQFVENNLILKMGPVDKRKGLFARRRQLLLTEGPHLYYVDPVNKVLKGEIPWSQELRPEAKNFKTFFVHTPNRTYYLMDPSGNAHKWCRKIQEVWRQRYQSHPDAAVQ
Procedure: The AlphaScreen® assay was performed following the general guidelines from the manufacturer (Perkin Elmer) ([29]). In short, the assay was performed in a final volume of 25 μl in white 384-well microtiter plates (Greiner) in a standard buffer containing 50 mM Tris-HCl (pH 7.4), 100 mM NaCl, 2 mM DTT, 0.01% (v/v) Tween-20 and 0.1% (w/v) BSA, with the addition of 5 μl of beads (anti-GST coated acceptor beads and streptavidin-coated donor beads; nickel chelate-coated acceptor beads and streptavidin-coated donor beads; or nickel chelate-coated acceptor beads and GSH-coated donor beads, 20 μg/ml final concentrations for each bead type). […]
The conditions for each AlphaScreen assay were identified in cross-titration experiments for each interaction to choose the ideal pair of concentrations within the linear range of the interactions. […] His-PDK1 and GST-fusion protein in the presence or absence of the different compounds were incubated in the dark for 60 min at room temperature and the emission of light from the acceptor beads was measured in an EnVision reader (Perkin Elmer) or Spark plate reader (Tecan). […]
Biotin-PIP3 interactions with GST-PDK1_1-556 or GST-PDK1_360-556 were assessed in the standard buffer. […]

PDK1 = target: T2, PDK1 (Homo sapiens, UniProt O15530); assay: Thermo Fisher Scientific/Invitrogen PDK1 cascade assay (Akt2 as substrate, no PIP3); assay type: biochemical; conditions: 10-point titration
T2 sequence (O15530 1-556): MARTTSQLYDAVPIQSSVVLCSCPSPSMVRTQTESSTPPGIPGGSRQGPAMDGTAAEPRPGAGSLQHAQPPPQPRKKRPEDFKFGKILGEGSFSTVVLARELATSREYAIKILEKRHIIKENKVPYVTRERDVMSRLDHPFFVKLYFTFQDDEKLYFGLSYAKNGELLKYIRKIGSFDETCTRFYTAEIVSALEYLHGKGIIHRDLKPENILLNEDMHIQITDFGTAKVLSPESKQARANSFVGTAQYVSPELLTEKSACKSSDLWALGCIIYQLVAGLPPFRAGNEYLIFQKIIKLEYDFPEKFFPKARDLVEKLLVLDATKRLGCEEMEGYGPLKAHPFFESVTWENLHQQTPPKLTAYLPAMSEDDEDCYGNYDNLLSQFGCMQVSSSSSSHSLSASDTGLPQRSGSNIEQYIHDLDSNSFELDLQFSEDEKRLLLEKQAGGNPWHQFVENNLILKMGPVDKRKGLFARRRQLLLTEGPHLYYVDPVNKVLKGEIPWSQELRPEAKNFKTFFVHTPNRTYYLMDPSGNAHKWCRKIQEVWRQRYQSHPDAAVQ
Procedure: To explore the structural basis of this effect, we synthesized additional inositol phosphate derivatives related to IP5 (Fig. 2A). […] The first was Thermo Fisher Scientific/Invitrogen PDK1 cascade assay, which uses Akt as substrate in a coupled, cascade-type assay and in which the activity of PDK1 is measured by its ability to activate Akt. The second was the “PDK1 Direct” assay, which uses a peptide substrate (Ser/Thr 07) of undisclosed sequence (table S1) as the substrate of PDK1 and a readout of FRET between coumarin and fluorescein (5-FAM). […] Scyllo-IP5 and another synthetic derivative of IP5, 2-O-(2-aminoethyl)-IP5 (AMR1474), were weak inhibitors in the same assays (10% or less inhibition at 1 μM) (table S2).
The commercial PDK1 activity assays were provided by Thermo Fisher Scientific as a service. […] The ¨PDK1 Direct¨ biochemical assay measures the phosphorylation of a peptide termed Ser/Thr 07 that is labeled with a donor fluorophore (coumarin) and an acceptor fluorophore (fluorescein) to create a FRET pair. The peptide substrate was first incubated with the kinase and ATP-Mg (25 μM ATP), then non-phosphorylated peptide was cleaved with a protease. The remaining FRET corresponds to the phosphorylated substrate. […]

Row | fold higher concentration needed for similar displacement of PIP3 from GST-linker-PH domain than from GST-PDK1_1-556 (GST-PDK1_360-556) | Hill slope, Cascade (PDK1) | IC50 (PDK1; absence of PIP3) [nM] | SMILES
1 | more than 1000 fold |  |  | CCCCO[C@H]1[C@@H](OP(=O)(O)O)[C@H](OP(=O)(O)O)[C@@H](OP(=O)(O)O)[C@H](OP(=O)(O)O)[C@H]1OP(=O)(O)O [HYG14, 2-O-butyl-IP5]
2 |  | 2.19 | 6.42 | O=C(O[C@H]1[C@@H](OP(=O)(O)O)[C@H](OP(=O)(O)O)[C@@H](OP(=O)(O)O)[C@H](OP(=O)(O)O)[C@H]1OP(=O)(O)O)c1ccccc1 [HYG8, 2-O-benzoyl-IP5]
